Source: patent publication US12570610B2, “Macromolecule-supported aminobenzazepine compounds” (Bolt Biotherapeutics, Inc., priority 2019, dated 2026)
pEC50: −log10 of the molar value.

Legend:
human TLR7 = biological target: T1, human TLR7 (Homo sapiens, UniProt Q9NYK1); assay: HEK293 NFKB reporter cells expressing human TLR7 (HEK Reporter Assay); type: cell-based; conditions: read-out: HEK293 hTLR7 EC50
T1 construct: host or cells: HEK293 reporter cells
T1 sequence (Q9NYK1 27-1049): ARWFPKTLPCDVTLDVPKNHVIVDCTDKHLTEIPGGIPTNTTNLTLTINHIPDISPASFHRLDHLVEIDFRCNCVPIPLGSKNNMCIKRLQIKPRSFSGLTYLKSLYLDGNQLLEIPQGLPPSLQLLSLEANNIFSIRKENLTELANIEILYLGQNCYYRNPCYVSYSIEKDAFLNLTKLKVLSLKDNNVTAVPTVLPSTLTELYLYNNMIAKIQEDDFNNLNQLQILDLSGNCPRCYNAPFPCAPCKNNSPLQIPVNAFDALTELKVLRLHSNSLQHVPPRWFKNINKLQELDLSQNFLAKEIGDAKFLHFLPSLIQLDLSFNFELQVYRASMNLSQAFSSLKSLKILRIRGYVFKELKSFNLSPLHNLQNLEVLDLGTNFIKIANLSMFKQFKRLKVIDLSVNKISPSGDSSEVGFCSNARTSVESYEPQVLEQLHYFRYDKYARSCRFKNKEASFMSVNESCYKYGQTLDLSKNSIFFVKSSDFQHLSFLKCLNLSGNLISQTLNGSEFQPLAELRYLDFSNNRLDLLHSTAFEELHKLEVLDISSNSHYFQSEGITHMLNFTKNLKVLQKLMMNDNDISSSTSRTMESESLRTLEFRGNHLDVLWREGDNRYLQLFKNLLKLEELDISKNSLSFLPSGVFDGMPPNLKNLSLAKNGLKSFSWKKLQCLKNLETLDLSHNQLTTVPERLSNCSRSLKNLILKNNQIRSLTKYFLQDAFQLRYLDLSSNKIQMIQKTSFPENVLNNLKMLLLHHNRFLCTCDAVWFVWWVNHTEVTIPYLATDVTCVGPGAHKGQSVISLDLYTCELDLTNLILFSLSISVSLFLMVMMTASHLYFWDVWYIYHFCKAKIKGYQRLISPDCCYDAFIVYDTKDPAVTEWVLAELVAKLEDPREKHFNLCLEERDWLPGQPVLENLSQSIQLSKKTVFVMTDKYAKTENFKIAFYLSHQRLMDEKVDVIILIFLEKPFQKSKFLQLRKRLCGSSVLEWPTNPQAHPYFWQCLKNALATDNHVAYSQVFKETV
Description: (§1) Each compound was synthesized and purified by the methods in the Examples provided herein, characterized by mass spectrometry, and shown to have the mass indicated. Activity against HEK293 NFKB reporter cells expressing human TLR7 or human TLR8 was measured according to method described in Example 67.
(§2) Example 67: HEK Reporter Assay
(§3) HEK293 reporter cells expressing human TLR7 or human TLR8 were purchased from Invivogen and vendor protocols were followed for cellular propagation and experimentation. Briefly, cells were grown to 80-85% confluence at 5% CO2 in DMEM supplemented with 10% FBS, Zeocin, and Blasticidin. Cells were then seeded in 96-well flat plates at 4×10^4 cells/well with substrate containing HEK detection medium and immunostimulatory molecules. Activity was measured using a plate reader at 620-655 nm wavelength.

human TLR8 = biological target: T2, human TLR8 (Homo sapiens, UniProt Q9NR97); assay: HEK293 NFKB reporter cells expressing human TLR8 (HEK Reporter Assay); type: cell-based; conditions: read-out: HEK293 hTLR8 EC50
T2 construct: host or cells: HEK293 reporter cells
T2 sequence (Q9NR97 27-1041): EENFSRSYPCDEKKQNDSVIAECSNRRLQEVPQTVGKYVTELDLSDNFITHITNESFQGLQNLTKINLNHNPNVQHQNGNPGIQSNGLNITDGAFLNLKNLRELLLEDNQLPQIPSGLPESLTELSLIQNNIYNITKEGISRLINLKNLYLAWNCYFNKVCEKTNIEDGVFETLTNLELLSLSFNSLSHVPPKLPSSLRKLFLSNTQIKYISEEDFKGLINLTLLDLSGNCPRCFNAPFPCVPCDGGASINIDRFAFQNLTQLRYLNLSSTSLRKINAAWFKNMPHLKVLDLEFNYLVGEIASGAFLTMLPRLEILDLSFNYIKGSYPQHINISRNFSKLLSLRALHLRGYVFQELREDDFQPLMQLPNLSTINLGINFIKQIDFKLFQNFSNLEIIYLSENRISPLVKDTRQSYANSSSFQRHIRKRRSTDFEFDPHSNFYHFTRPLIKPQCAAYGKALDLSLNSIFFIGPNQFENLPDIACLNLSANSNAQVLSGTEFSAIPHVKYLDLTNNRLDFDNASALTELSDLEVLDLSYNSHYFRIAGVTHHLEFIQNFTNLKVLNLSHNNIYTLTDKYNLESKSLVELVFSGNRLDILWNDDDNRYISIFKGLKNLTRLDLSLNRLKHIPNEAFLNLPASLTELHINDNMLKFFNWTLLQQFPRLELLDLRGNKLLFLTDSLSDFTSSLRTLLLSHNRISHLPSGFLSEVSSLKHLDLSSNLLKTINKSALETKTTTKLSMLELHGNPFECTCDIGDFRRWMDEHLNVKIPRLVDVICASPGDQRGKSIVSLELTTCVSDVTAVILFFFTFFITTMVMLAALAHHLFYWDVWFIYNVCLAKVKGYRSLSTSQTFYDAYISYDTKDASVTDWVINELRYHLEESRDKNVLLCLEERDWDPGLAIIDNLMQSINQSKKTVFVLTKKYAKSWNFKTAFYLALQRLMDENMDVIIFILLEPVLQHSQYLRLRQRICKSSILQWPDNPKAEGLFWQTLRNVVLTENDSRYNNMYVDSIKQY
Description: as §1, §2, §3

Compound | pEC50 (human TLR7) | pEC50 (human TLR8)
CCCN(CCC)C(=O)C1=Cc2ccc(-c3cccc(S(=O)(=O)Nc4nccs4)c3)cc2N=C(N)C1 [Bz-35] | < 5.05 | < 5.05
CCCN(CCC)C(=O)C1=Cc2ccc(-c3cccc(S(=O)(=O)NC(=O)c4ccccc4)c3)cc2N=C(N)C1 [Bz-37] | < 5.05 | < 5.05
CCCN(CCC)C(=O)C1=Cc2ccc(-c3cc(C(F)(F)F)cc(S(=O)(=O)N4CC(CN(C)C)C4)c3)cc2N=C(N)C1 [Bz-40] | 6.48 | < 5.05
CCCN(CCc1c[nH]cn1)C(=O)C1=Cc2ccc(-c3cccc(S(=O)(=O)N4CC(CO)C4)c3)cc2N=C(N)C1 [Bz-41] | < 5.05 | < 5.05
CCCN(Cc1ccc(CN2CCN(C(=O)OC(C)(C)C)CC2)cc1)C(=O)C1=Cc2ccc(-c3cccc(S(=O)(=O)N4CC(CO)C4)c3)cc2N=C(N)C1 [Bz-44] |  | 5.99
CCCN(CCC)C(=O)C1=Cc2ccc(-c3c(C)n[nH]c3C)cc2N=C(N)C1 [Bz-45] | < 5.05 | 
CCN(CC)C(=O)C1=Cc2ccc(-c3cccc(S(=O)(=O)N4CC(CO)C4)c3)cc2N=C(N)C1 [Bz-50] |  | < 5.05
CCCNC(=O)C1=Cc2ccc(-c3cccc(S(=O)(=O)N4CC(CO)C4)c3)cc2N=C(N)C1 [Bz-58] | < 5.05 | < 5.05
CCCN(Cc1ccc(CN)cc1)C(=O)C1=Cc2ccccc2N=C(N)C1 [Bz-59] | < 5.05 | 
CCCN(CCOC)C(=O)C1=Cc2ccc(-c3cccc(S(=O)(=O)N4CC(CO)C4)c3)cc2N=C(N)C1 [Bz-60] | < 5.05 | 
CCCN(CCc1ccc(OC)cc1)C(=O)C1=Cc2ccc(-c3cccc(S(=O)(=O)N4CC(CN)C4)c3)cc2N=C(N)C1 [Bz-61] | < 5.05 | 5.23
CCCN(Cc1ccc(CN(C)C)cc1)C(=O)C1=Cc2ccc(-c3cccc(S(=O)(=O)N4CC(CN)C4)c3)cc2N=C(N)C1 [Bz-62] | < 5.05 | < 5.05
CCCN(CCC)C(=O)C1=Cc2ccc(C(=O)COC)cc2N=C(N)C1 [Bz-65] | 5.41 | 5.23
CCCN(NCC)C(=O)C1=Cc2ccc(-c3cccc(S(=O)(=O)N4CC(CO)C4)c3)cc2N=C(N)C1 [Bz-71] | < 5.05 | 
CCCN(CCC)C(=O)C1=Cc2ccc(CCCCCN)cc2N=C(N)C1 [Bz-74] | < 5.05 | 
CCCN(CCC(F)(F)F)C(=O)C1=Cc2ccc(C(=O)Nc3ccccc3)cc2N=C(N)C1 [Bz-75] | < 5.05 | 
